Data as given in patent publication US20230284620A1, “MIXTURES OF PYRIDAZINES AS HERBICIDAL COMPOSITIONS” (SYNGENTA CROP PROTECTION AG, priority 2020, published 2023).
“And” between values parts separate entries of the source, which are not always exact repeats. Identical values can stand only once.

Columns and labels:
Assay in all cases: Post-emergence glasshouse herbicide test, visual phytotoxicity
Assay type in all cases: in vivo
Details in all cases: 13 days
[1] = tested on: Amaranthus retroflexus (AMARE)
Description: (§1) Seeds of Setaria faberi (SETFA), Echinochloa crus-galli (ECHCG), Digitaria sanguinalis (DIGSA), Lolium perenne (LOLPE), Alopecurus myosuroides (ALOMY), Chenopodium album (CHEAL), Ipomoea hederacea (IPOHE), Stellaria media (STEME), Abutilon threophrasti (ABUTH) and Amaranthus retroflexus (AMARE) were sown in standard sterilised soil in pots. After cultivation for 8 days under controlled conditions in a glasshouse (at 24/19° C., day/night; 16 hours light; no humidity control), the plants were sprayed at 500 l/Ha with an aqueous spray solution derived from the formulation of the technical active ingredients in a small amount of acetone and a solvent and emulsifier mixture referred to as IF50 (11.12% Emulsogen EL360 TM+44.44% N-methylpyrrolidone+44.44% Dowanol DPM glycol ether), to create a 50 g/l solution which was then diluted using 0.2% Genapol X080 (CAS Number: 9043-30-5) as diluent to give the desired final dose of test compound.
(§2) Where active ingredients were applied as mixtures, aqueous spray solutions were prepared as above, containing both active ingredients.
(§3) The test plants were then grown under controlled conditions in a glasshouse (at 24/18° C., day/night; 15 hours light; 50% humidity) and watered twice daily. After 13 days, the test was evaluated visually for percentage phytotoxicity to the plants (where 100=total damage to plant; 0=no damage to plant; and NC=not captured) when compared to control untreated plants. Two to four replicates were applied for each treatment in a randomised block test design.
(§4) 22., E=X+Y−(X*Y/100), where • X=average percent phytotoxicity of herbicide A when applied at a certain rate • Y=average percent phytotoxicity using herbicide B when applied at a certain rate • E=the expected effect of the mixture of herbicides A and B as calculated from the Colby formula.

[2] = tested on: Setaria faberi (SETFA)
Description: as §1, §2, §3, §4

[3] = tested on: Digitaria sanguinalis (DIGSA)
Description: as §1, §2, §3, §4

[4] = tested on: Lolium perenne (LOLPE)
Description: as §1, §2, §3, §4

[5] = tested on: Alopecurus myosuroides (ALOMY)
Description: as §1, §2, §3, §4

[6] = tested on: Chenopodium album (CHEAL)
Description: as §1, §2, §3, §4

[7] = tested on: Abutilon threophrasti (ABUTH)
Description: as §1, §2, §3, §4

[8] = tested on: Ipomoea hederacea (IPOHE)
Description: as §1, §2, §3, §4

[9] = tested on: Echinochloa crus-galli (ECHCG)
Description: as §1, §2, §3, §4

[10] = tested on: Stellaria media (STEME)
Description: as §1, §2, §3, §4

Cc1ccc2ccc(C)c(C3C(=O)C(Cl)=NN(C)C3=O)c2c1 (stereo not drawn) [A-I]
percentage phytotoxicity AMARE ([1]; 0.625 g/ha): 14%
percentage phytotoxicity AMARE ([1]; 1.25 g/ha): 44%
percentage phytotoxicity AMARE ([1]; 2.5 g/ha): 70%
percentage phytotoxicity AMARE ([1]; 5 g/ha): 74%
percentage phytotoxicity AMARE ([1]; 10 g/ha): 73%
percentage phytotoxicity SETFA ([2]; 0.625 g/ha): 0%
percentage phytotoxicity SETFA ([2]; 1.25 g/ha): 0%
percentage phytotoxicity SETFA ([2]; 5 g/ha): 43%
percentage phytotoxicity SETFA ([2]; 10 g/ha): 72%
percentage phytotoxicity DIGSA ([3]; 0.625 g/ha): 0% and 1%
percentage phytotoxicity DIGSA ([3]; 1.25 g/ha): 0%
percentage phytotoxicity DIGSA ([3]; 2.5 g/ha): 3% and 0%
percentage phytotoxicity DIGSA ([3]; 5 g/ha): 22% and 21%
percentage phytotoxicity LOLPE ([4]; 0.625 g/ha): 0% and 3%
percentage phytotoxicity LOLPE ([4]; 1.25 g/ha): 0% and 3%
percentage phytotoxicity LOLPE ([4]; 2.5 g/ha): 3% and 1%
percentage phytotoxicity LOLPE ([4]; 10 g/ha): 43% and 35%
percentage phytotoxicity ALOMY ([5]; 0.625 g/ha): 0%
percentage phytotoxicity ALOMY ([5]; 1.25 g/ha): 0%
percentage phytotoxicity ALOMY ([5]; 2.5 g/ha): 0%
percentage phytotoxicity ALOMY ([5]; 5 g/ha): 9% and 0%
percentage phytotoxicity ALOMY ([5]; 10 g/ha): 21%
percentage phytotoxicity CHEAL ([6]; 0.625 g/ha): 6%
percentage phytotoxicity CHEAL ([6]; 2.5 g/ha): 13% and 16%
percentage phytotoxicity CHEAL ([6]; 5 g/ha): 28% and 26%
percentage phytotoxicity ABUTH ([7]; 0.625 g/ha): 6%
percentage phytotoxicity ABUTH ([7]; 2.5 g/ha): 21%
percentage phytotoxicity ABUTH ([7]; 5 g/ha): 58% and 55%
percentage phytotoxicity ABUTH ([7]; 10 g/ha): 60%
percentage phytotoxicity IPOHE ([8]; 0.625 g/ha): 13%
percentage phytotoxicity IPOHE ([8]; 2.5 g/ha): 53% and 48%
percentage phytotoxicity IPOHE ([8]; 5 g/ha): 63%
percentage phytotoxicity IPOHE ([8]; 10 g/ha): 74%
percentage phytotoxicity ECHCG ([9]; 0.625 g/ha): 0%
percentage phytotoxicity ECHCG ([9]; 1.25 g/ha): 0%
percentage phytotoxicity ECHCG ([9]; 2.5 g/ha): 8%
percentage phytotoxicity ECHCG ([9]; 5 g/ha): 39%
percentage phytotoxicity ECHCG ([9]; 10 g/ha): 64%
percentage phytotoxicity STEME ([10]; 0.625 g/ha): 34%
percentage phytotoxicity STEME ([10]; 1.25 g/ha): 64% and 58%
percentage phytotoxicity STEME ([10]; 2.5 g/ha): 66%
percentage phytotoxicity STEME ([10]; 5 g/ha): 79%
percentage phytotoxicity STEME ([10]; 10 g/ha): 84%

CN1C[C@H](c2cccc(C(F)(F)F)c2)[C@@H](C(=O)Nc2ccccc2F)C1=O [B-III]
percentage phytotoxicity AMARE ([1]; 3.125 g/ha): 4%
percentage phytotoxicity AMARE ([1]; 6.25 g/ha): 6%
percentage phytotoxicity AMARE ([1]; 12.5 g/ha): 10%
percentage phytotoxicity AMARE ([1]; 25 g/ha): 21%
percentage phytotoxicity AMARE ([1]; 50 g/ha): 31%
percentage phytotoxicity SETFA ([2]; 3.125 g/ha): 66%
percentage phytotoxicity SETFA ([2]; 6.25 g/ha): 68%
percentage phytotoxicity SETFA ([2]; 12.5 g/ha): 70%
percentage phytotoxicity SETFA ([2]; 25 g/ha): 74%
percentage phytotoxicity SETFA ([2]; 50 g/ha): 73%
percentage phytotoxicity DIGSA ([3]; 3.125 g/ha): 72%
percentage phytotoxicity DIGSA ([3]; 6.25 g/ha): 74%
percentage phytotoxicity DIGSA ([3]; 12.5 g/ha): 78%
percentage phytotoxicity DIGSA ([3]; 25 g/ha): 79%
percentage phytotoxicity DIGSA ([3]; 50 g/ha): 80%
percentage phytotoxicity LOLPE ([4]; 3.125 g/ha): 30%
percentage phytotoxicity LOLPE ([4]; 6.25 g/ha): 43%
percentage phytotoxicity LOLPE ([4]; 12.5 g/ha): 55%
percentage phytotoxicity LOLPE ([4]; 25 g/ha): 70%
percentage phytotoxicity LOLPE ([4]; 50 g/ha): 75%
percentage phytotoxicity CHEAL ([6]; 3.125 g/ha): 6%
percentage phytotoxicity CHEAL ([6]; 6.25 g/ha): 10%
percentage phytotoxicity CHEAL ([6]; 12.5 g/ha): 14%
percentage phytotoxicity CHEAL ([6]; 25 g/ha): 44%
percentage phytotoxicity CHEAL ([6]; 50 g/ha): 56%
percentage phytotoxicity ABUTH ([7]; 3.125 g/ha): 10%
percentage phytotoxicity ABUTH ([7]; 6.25 g/ha): 4%
percentage phytotoxicity ABUTH ([7]; 12.5 g/ha): 3%
percentage phytotoxicity ABUTH ([7]; 25 g/ha): 19%
percentage phytotoxicity ABUTH ([7]; 50 g/ha): 18%
percentage phytotoxicity IPOHE ([8]; 3.125 g/ha): 9%
percentage phytotoxicity IPOHE ([8]; 6.25 g/ha): 11%
percentage phytotoxicity IPOHE ([8]; 12.5 g/ha): 15%
percentage phytotoxicity IPOHE ([8]; 25 g/ha): 24%
percentage phytotoxicity IPOHE ([8]; 50 g/ha): 28%
percentage phytotoxicity ECHCG ([9]; 3.125 g/ha): 70%
percentage phytotoxicity ECHCG ([9]; 6.25 g/ha): 70%
percentage phytotoxicity ECHCG ([9]; 12.5 g/ha): 73%
percentage phytotoxicity ECHCG ([9]; 25 g/ha): 73%
percentage phytotoxicity ECHCG ([9]; 50 g/ha): 75%
percentage phytotoxicity STEME ([10]; 3.125 g/ha): 13%
percentage phytotoxicity STEME ([10]; 6.25 g/ha): 21%
percentage phytotoxicity STEME ([10]; 12.5 g/ha): 14%
percentage phytotoxicity STEME ([10]; 25 g/ha): 46%
percentage phytotoxicity STEME ([10]; 50 g/ha): 71%

CS(=O)(=O)c1ccc(C(=O)C2C(=O)CCCC2=O)c(Cl)c1OCCC1OCCO1 [B-II]
percentage phytotoxicity AMARE ([1]; 0.625 g/ha): 0%
percentage phytotoxicity AMARE ([1]; 1.25 g/ha): 13%
percentage phytotoxicity AMARE ([1]; 2.5 g/ha): 25%
percentage phytotoxicity AMARE ([1]; 5 g/ha): 53%
percentage phytotoxicity AMARE ([1]; 10 g/ha): 58%
percentage phytotoxicity SETFA ([2]; 0.625 g/ha): 0%
percentage phytotoxicity SETFA ([2]; 1.25 g/ha): 3%
percentage phytotoxicity SETFA ([2]; 2.5 g/ha): 0%
percentage phytotoxicity SETFA ([2]; 5 g/ha): 5%
percentage phytotoxicity SETFA ([2]; 10 g/ha): 0%
percentage phytotoxicity DIGSA ([3]; 0.625 g/ha): 0%
percentage phytotoxicity DIGSA ([3]; 1.25 g/ha): 5%
percentage phytotoxicity DIGSA ([3]; 2.5 g/ha): 0%
percentage phytotoxicity DIGSA ([3]; 5 g/ha): 10%
percentage phytotoxicity DIGSA ([3]; 10 g/ha): 3%
percentage phytotoxicity LOLPE ([4]; 0.625 g/ha): 0%
percentage phytotoxicity LOLPE ([4]; 1.25 g/ha): 5%
percentage phytotoxicity LOLPE ([4]; 2.5 g/ha): 0%
percentage phytotoxicity LOLPE ([4]; 5 g/ha): 5%
percentage phytotoxicity LOLPE ([4]; 10 g/ha): 0%
percentage phytotoxicity ALOMY ([5]; 0.625 g/ha): 0%
percentage phytotoxicity ALOMY ([5]; 1.25 g/ha): 3%
percentage phytotoxicity ALOMY ([5]; 2.5 g/ha): 0%
percentage phytotoxicity ALOMY ([5]; 5 g/ha): 5%
percentage phytotoxicity ALOMY ([5]; 10 g/ha): 0%
percentage phytotoxicity CHEAL ([6]; 0.625 g/ha): 5%
percentage phytotoxicity CHEAL ([6]; 1.25 g/ha): 15%
percentage phytotoxicity CHEAL ([6]; 2.5 g/ha): 30%
percentage phytotoxicity CHEAL ([6]; 5 g/ha): 55%
percentage phytotoxicity CHEAL ([6]; 10 g/ha): 65%
percentage phytotoxicity ABUTH ([7]; 0.625 g/ha): 0%
percentage phytotoxicity ABUTH ([7]; 1.25 g/ha): 40%
percentage phytotoxicity ABUTH ([7]; 2.5 g/ha): 43%
percentage phytotoxicity ABUTH ([7]; 5 g/ha): 58%
percentage phytotoxicity ABUTH ([7]; 10 g/ha): 70%
percentage phytotoxicity IPOHE ([8]; 0.625 g/ha): 5%
percentage phytotoxicity IPOHE ([8]; 1.25 g/ha): 15%
percentage phytotoxicity IPOHE ([8]; 2.5 g/ha): 20%
percentage phytotoxicity IPOHE ([8]; 5 g/ha): 45%
percentage phytotoxicity IPOHE ([8]; 10 g/ha): 55%
percentage phytotoxicity ECHCG ([9]; 0.625 g/ha): 0%
percentage phytotoxicity ECHCG ([9]; 1.25 g/ha): 5%
percentage phytotoxicity ECHCG ([9]; 2.5 g/ha): 0%
percentage phytotoxicity ECHCG ([9]; 5 g/ha): 8%
percentage phytotoxicity ECHCG ([9]; 10 g/ha): 5%
percentage phytotoxicity STEME ([10]; 0.625 g/ha): 0%
percentage phytotoxicity STEME ([10]; 1.25 g/ha): 10%
percentage phytotoxicity STEME ([10]; 2.5 g/ha): 28%
percentage phytotoxicity STEME ([10]; 5 g/ha): 53%
percentage phytotoxicity STEME ([10]; 10 g/ha): 70%
